This note sets out measurements from BindingDB's records for doi:10.1021/acs.jmedchem.6b01851 (Amgen, 2017).

The target of this assay is Sodium channel protein type 5 subunit alpha (Homo sapiens, UniProt Q14524). Put plainly: Inhibition of human Nav1.5 expressed in HEK293 cells assessed as reduction in peak inward current by ionworks quattro electrophysiology assay. (Patch clamp records ionic current or voltage across a cell membrane.)

pIC50: −log10 of the molar value.

Sodium channel protein type 5 subunit alpha, sequence (Q14524 whole entry): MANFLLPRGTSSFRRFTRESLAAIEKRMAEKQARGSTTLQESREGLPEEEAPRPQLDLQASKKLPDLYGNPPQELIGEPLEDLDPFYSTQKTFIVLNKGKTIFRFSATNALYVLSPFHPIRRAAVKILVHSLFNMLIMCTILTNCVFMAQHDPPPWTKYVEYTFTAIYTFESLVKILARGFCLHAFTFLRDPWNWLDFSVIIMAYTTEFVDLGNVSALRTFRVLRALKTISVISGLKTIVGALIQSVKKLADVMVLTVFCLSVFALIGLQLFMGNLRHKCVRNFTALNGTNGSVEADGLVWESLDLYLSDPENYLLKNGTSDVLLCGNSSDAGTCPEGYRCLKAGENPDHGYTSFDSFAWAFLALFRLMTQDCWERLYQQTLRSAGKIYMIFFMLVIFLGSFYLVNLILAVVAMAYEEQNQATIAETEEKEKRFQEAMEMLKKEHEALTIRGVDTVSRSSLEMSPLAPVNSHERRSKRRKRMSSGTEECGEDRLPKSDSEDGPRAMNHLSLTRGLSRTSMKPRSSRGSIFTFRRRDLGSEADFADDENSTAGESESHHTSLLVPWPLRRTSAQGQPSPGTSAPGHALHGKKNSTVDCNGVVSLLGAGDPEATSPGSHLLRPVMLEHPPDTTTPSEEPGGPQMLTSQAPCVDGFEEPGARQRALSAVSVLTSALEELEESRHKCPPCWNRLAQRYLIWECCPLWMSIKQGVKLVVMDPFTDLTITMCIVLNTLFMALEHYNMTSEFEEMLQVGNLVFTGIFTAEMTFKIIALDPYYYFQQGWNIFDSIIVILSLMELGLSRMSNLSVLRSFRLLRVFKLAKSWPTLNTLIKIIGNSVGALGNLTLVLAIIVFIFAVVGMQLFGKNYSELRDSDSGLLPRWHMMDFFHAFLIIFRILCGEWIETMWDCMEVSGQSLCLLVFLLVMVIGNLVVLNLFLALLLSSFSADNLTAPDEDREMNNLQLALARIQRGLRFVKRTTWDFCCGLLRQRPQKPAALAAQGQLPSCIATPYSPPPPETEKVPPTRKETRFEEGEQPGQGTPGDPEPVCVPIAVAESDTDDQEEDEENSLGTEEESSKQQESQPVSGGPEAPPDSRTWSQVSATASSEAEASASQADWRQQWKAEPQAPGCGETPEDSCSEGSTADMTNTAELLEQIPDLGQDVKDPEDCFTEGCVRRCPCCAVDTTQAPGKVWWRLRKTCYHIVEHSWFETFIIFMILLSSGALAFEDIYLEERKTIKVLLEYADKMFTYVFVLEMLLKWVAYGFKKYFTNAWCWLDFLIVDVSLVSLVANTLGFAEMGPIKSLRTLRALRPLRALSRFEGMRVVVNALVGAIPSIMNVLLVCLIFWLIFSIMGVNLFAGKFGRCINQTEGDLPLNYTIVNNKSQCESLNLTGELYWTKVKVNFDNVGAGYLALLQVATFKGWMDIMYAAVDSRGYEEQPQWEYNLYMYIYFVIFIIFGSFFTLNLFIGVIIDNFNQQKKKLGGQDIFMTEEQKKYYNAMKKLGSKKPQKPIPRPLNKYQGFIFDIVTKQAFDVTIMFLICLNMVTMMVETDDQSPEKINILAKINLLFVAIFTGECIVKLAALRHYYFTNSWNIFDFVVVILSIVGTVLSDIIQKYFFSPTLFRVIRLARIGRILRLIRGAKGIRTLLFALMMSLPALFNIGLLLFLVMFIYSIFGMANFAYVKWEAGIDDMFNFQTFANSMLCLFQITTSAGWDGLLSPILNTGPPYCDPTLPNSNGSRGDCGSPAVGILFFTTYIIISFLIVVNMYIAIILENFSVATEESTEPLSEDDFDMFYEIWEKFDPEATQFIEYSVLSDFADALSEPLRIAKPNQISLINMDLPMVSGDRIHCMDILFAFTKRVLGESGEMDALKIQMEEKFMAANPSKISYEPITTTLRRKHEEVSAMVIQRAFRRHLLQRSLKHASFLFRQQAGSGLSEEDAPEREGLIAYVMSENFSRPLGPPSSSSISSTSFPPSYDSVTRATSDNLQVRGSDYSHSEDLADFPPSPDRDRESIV

As for `COc1cc(-c2cccc(F)c2)c(Cl)cc1-c1ncc(O)c2cc(S(=O)(=O)Nc3ccon3)ccc12` [1-(2-chloro-3'-fluoro-5-methoxy-4-biphenylyl)-4-hydroxy-N-3-isoxazolyl-6-isoquinolinesulfonamide], the pIC50 is less than 5.00.
Regarding `COc1cc(-c2cccc(F)c2)c(Cl)cc1-c1nccc2cc(S(=O)(=O)Nc3ncon3)ccc12` [1-(2-chloro-3'-fluoro-5-methoxy-4-biphenylyl)-N-1,2,4-oxadiazol-3-yl-6-isoquinolinesulfonamide], the pIC50 is less than 5.00.
With `COc1cc(-c2cccc(F)c2)c(Cl)cc1-c1nn(C)c(=O)c2cc(S(=O)(=O)Nc3ccon3)ccc12` [1-(2-chloro-3'-fluoro-5-methoxy-4-biphenylyl)-N-3-isoxazolyl-3-methyl-4-oxo-3,4-dihydro-6-phthalazinesulfonamide], the pIC50 was less than 5.00.
The value for `COc1cc(-c2cccc(F)c2)c(Cl)cc1-c1nccc2cc(S(=O)(=O)Nc3cccnn3)ccc12` [1-(2-chloro-3'-fluoro-5-methoxy-4-biphenylyl)-N-3-pyridazinyl-6-isoquinolinesulfonamide] was less than 5.00; that for `COc1cc(-c2cccc(Cl)c2)c(F)cc1-c1nccc2cc(S(=O)(=O)Nc3ccon3)ccc12` [1-(3'-chloro-2-fluoro-5-methoxy-4-biphenylyl)-N-3-isoxazolyl-6-isoquinolinesulfonamide] was less than 5.00.
On to `COc1cc(-c2cccc(F)c2)c(Cl)cc1-c1ncnc2cc(S(=O)(=O)Nc3ccon3)ccc12` [4-(2-chloro-3'-fluoro-5-methoxy-4-biphenylyl)-N-3-isoxazolyl-7-quinazolinesulfonamide], for which the pIC50 is less than 5.00.

As usually defined, the pIC50 is the IC50 on a negative log10 scale, so that one unit is a factor of ten.
